Test results reported in patent US20230233520A1, “COMBINATION THERAPY OF ARTEMISININ-RELATED COMPOUNDS AND HISTONE DEACETYLASE INHIBITORS FOR TREATMENT OF HPV-RELATED BENIGN, PREMALIGNANT, AND MALIGNANT DISEASES” (Georgetown University, priority 2020, published 2023).
pIC50: −log10 of the molar value. Where two headings read alike, the source gives them in different places. Each block holds one compound with its values, some of them ahead of it.

What was measured:
HEC/16E6E7 cells = test: […]-GLO cell viability, drugs alone and in combination (Example 4); format: cell-based
Experimental: The cell lines were treated with artesunate, vorinostat, and panobinostat individually and in combination. The IC50 values were calculated from the cell viability assays for each drug alone and in combination. […] Cells were then incubated for a 24-hour period to allow them to adhere to the wells. […] For the experiments involving artesunate and panobinostat, the concentrations used varied by cell type. […] After an incubation time of 72 hours, the […]-GLO® Luminescent Cell Viability Assay (Promega) was conducted. The buffer/enzyme solution was mixed and applied to the cells according to the Promega protocol. Cells were then placed on the orbital shaker for 2 minutes and then placed in the luminometer for reading. To analyze the data, the background (from only the DMEM media) was subtracted from the luminescence of each well. […] All readings were normalized based upon the control values. […] Analyses were conducted using GraphPad Prism 9. The combination index and dose-reduction index values were calculated based using the summary of the data for all three cell types. […] Dose reduction values are the measure of how many folds the dose of each drug in a synergistic combination may be reduced compared with the doses of each drug alone. By reducing dose, toxicity is reduced without compromising effect. The values are shown in Table 4 for IC50 and in Table 5 for IC90. […] The methods of analysis are the same as those described above. […] A DMSO experimental stock was made in DMEM as a negative control. […] Analyses were conducted using GraphPad Prism 9. The combination index and dose-reduction index values were calculated based using the summary of the data for all three cell types. […] Dose reduction values are the measure of how many folds the dose of each drug in a synergistic combination may be reduced compared with the doses of each drug alone. By reducing dose, toxicity is reduced without compromising effect. The values are shown in Table 6 for IC50 and in Table 7 for IC90.

SiHa cells [1] = test: as above; format: cell-based; conditions: Homo sapiens
Experimental: (§1) The IC50 values were calculated from the cell viability assays for each drug alone and in combination. […] Cells were then incubated for a 24-hour period to allow them to adhere to the wells. […] For the experiments involving artesunate and panobinostat, the concentrations used varied by cell type. […] The buffer/enzyme solution was mixed and applied to the cells according to the Promega protocol. Cells were then placed on the orbital shaker for 2 minutes and then placed in the luminometer for reading. To analyze the data, the background (from only the DMEM media) was subtracted from the luminescence of each well. […] All readings were normalized based upon the control values. […] Analyses were conducted using GraphPad Prism 9. The combination index and dose-reduction index values were calculated based using the summary of the data for all three cell types. […] Dose reduction values are the measure of how many folds the dose of each drug in a synergistic combination may be reduced compared with the doses of each drug alone. […] The values are shown in Table 4 for IC50 and in Table 5 for IC90. […] The methods of analysis are the same as those described above. […] A DMSO experimental stock was made in DMEM as a negative control. […] Analyses were conducted using GraphPad Prism 9. The combination index and dose-reduction index values were calculated based using the summary of the data for all three cell types. […] Dose reduction values are the measure of how many folds the dose of each drug in a synergistic combination may be reduced compared with the doses of each drug alone. […] The values are shown in Table 6 for IC50 and in Table 7 for IC90.

HeLa cells [2] = test: as above; format: cell-based; conditions: Homo sapiens
Experimental: as §1

SiHa cells [3] = test: […]-GLO cell viability, single drugs (Example 1); format: cell-based; conditions: Homo sapiens, 72 h, read-out: IC50 Confidence Interval
Description: (§2) To test the individual effects of artesunate and panobinostat, three cervical cancer cell model lines (Caski, SiHa, and HeLa cells) were obtained from the American Type Culture Collection (Manassas, Va.) and maintained in DMEM (Invitrogen) supplemented with 10% fetal bovine serum (Quality Biological, Inc., Gaitherburg, Md.) and penicillin/streptomycin (Invitrogen), in accordance with previous experiments. The cells were split every 3 to 5 days to prevent any of the lines from becoming fully confluent.
(§3) To prepare the cells for treatment, 6000 cells per well were seeded in 96-well plates (for each cell line). Cells were then incubated for a 24-hour period to allow them to adhere to the wells. The cells were then treated with various concentrations of artesunate or panobinostat. For artesunate, the concentrations used for treating each cell type were 80 μM, 40 μM, 20 μM, 10 μM, 5 μM, 2.5 μM, and 1.25 μM. […] Control wells consisted of DMEM, in which the DMSO concentration was the highest drug concentration (0.2% for artesunate, 0.064% for panobinostat) tested. Each concentration was performed in triplicate and the control was conducted in sextuplicate.
(§4) After an incubation time of 72 hours, the […]-GLO® Luminescent Cell Viability Assay (Promega) was conducted. The buffer/enzyme solution was mixed and applied to the cells according to the Promega protocol. Cells were then placed on the orbital shaker for 3 minutes, incubated for 30 minutes, and placed in the luminometer for reading.
(§5) To analyze the data, the background (from only the DMEM media) was subtracted from the luminescence of each well. The program GraphPad Prism 7 was then used to calculate the IC50 values and the cell viability curves for each drug and cell line. All readings were normalized based upon the control values.

Caski cells = test: […]-GLO cell viability, single drugs (Example 1); format: cell-based; conditions: Homo sapiens, Ca-Ski, 72 h, read-out: IC50 Confidence Interval
Description: as §2, §3, §4, §5

HeLa cells [4] = test: […]-GLO cell viability, single drugs (Example 1); format: cell-based; conditions: 72 h
Description: as §2, §3, §4, §5

HeLa cells [5] = test: […]-GLO cell viability, artesunate/panobinostat dose pairings, CompuSyn analysis (Example 1); format: cell-based; design: key: fraction surviving, normalized to average of untreated controls
Experimental: To test the combined effects of artesunate and panobinostat, HeLa cells were cultured as previously described. The cells were then seeded in 96-well plates as discussed above. After the 24-hour incubation period, the cells were treated by the following means. […] All possible pairings of each drug concentration were tested. […] All pairings were performed in triplicate and the control was performed in sextuplicate.
After 72 hours of incubation time, the […]-GLO® Luminescent Cell Viability Assay (Promega) was conducted as above. The combination effect of the drugs was analyzed using the CompuSyn program. The background (DMEM only) was subtracted as described previously and all experimental wells were normalized to the average of the controls (as above).

[6] = toxicity to humans; cited from earlier work
[7] = test system: HPV 16- and HPV 18-positive cells; conditions: in vitro experiments [7]; cited from earlier work
HPV precancers = conditions: self-administered by patients; published clinical trial [8]; cited from earlier work

IC90 (HeLa cells [2]; Hela, SAHA alone, read-out: IC90 SAHA): 6.5 µM
Compound: O=C(CCCCCCC(=O)Nc1ccccc1)NO [vorinostat]
pIC50 (HEC/16E6E7 cells; HEC/16E6E7, SAHA alone, read-out: IC50 SAHA): 5.64 | IC90 (HEC/16E6E7 cells; HEC/16E6E7, SAHA alone, read-out: IC90 SAHA): 8.54 µM | IC90 (SiHa cells [1]; Siha, SAHA alone, read-out: IC90 SAHA): 13.2 µM

pIC50 (HeLa cells [2]; Hela, PAN alone, 72 h, read-out: IC50 PAN): 4.83 | IC90 (HeLa cells [2]; Hela, PAN alone, 72 h, read-out: IC90 PAN): 60.5 µM | pIC50 (Caski cells; Caski, 95% confidence interval): 7.90 to 8.18 | pIC50 (HeLa cells [4]; Homo sapiens, 95% confidence interval, read-out: IC50 Confidence Interval): 7.88 to 8.11 | pIC50 (HeLa cells [4]; Homo sapiens, drug alone, read-out: IC50): ~8.00 | pIC50 (HeLa cells [4]; drug alone, read-out: IC50): 8.00
Compound: Cc1[nH]c2ccccc2c1CCNCc1ccc(/C=C/C(=O)NO)cc1 [panobinostat]
pIC50 (HEC/16E6E7 cells; HEC/16E6E7, PAN alone, 72 h, read-out: IC50 PAN): 4.60 | IC90 (HEC/16E6E7 cells; HEC/16E6E7, PAN alone, 72 h, read-out: IC90 PAN): 115 µM | pIC50 (SiHa cells [1]; Siha, PAN alone, 72 h, read-out: IC50 PAN): 4.75 | IC90 (SiHa cells [1]; Siha, PAN alone, 72 h, read-out: IC90 PAN): 67.6 µM | pIC50 (SiHa cells [3]; 95% confidence interval): 7.59 to 7.70 | Effect (fraction of HeLa cells still surviving) (HeLa cells [5]; panobinostat 2.5 nM alone): 0.7864 | Effect (fraction of HeLa cells still surviving) (HeLa cells [5]; panobinostat 5.0 nM alone): 0.7379 | Effect (fraction of HeLa cells still surviving) (HeLa cells [5]; panobinostat 10.0 nM alone): 0.6177 | Effect (fraction of HeLa cells still surviving) (HeLa cells [5]; panobinostat 20.0 nM alone): 0.4359 | Effect (fraction of HeLa cells still surviving) (HeLa cells [5]; panobinostat 40.0 nM alone): 0.3322

Compound: C[C@H]1[C@H](OC(=O)CCC(=O)O)O[C@@H]2O[C@@]3(C)CC[C@H]4[C@H](C)CC[C@@H]1[C@@]24OO3 [artesunate]
pIC50 (HEC/16E6E7 cells; 72 h, read-out: IC50 ART): 5.31 | IC90 (HEC/16E6E7 cells; 72 h, read-out: IC90 ART): 77.6 µM | pIC50 (HEC/16E6E7 cells; read-out: IC50 ART): 5.16 | IC90 (HEC/16E6E7 cells; read-out: IC90 ART): 158 µM | safety relative to artemether [6]: twice as safe as artemether | toxicity relative to chloroquinine [6]: one-fiftieth as toxic as chloroquinine | pIC50 (SiHa cells [1]; SiHa, 72 h, read-out: IC50 ART): 5.32 | IC90 (SiHa cells [1]; SiHa, 72 h, read-out: IC90 ART): 30 µM | pIC50 (SiHa cells [1]; SiHa, read-out: IC50 ART): 5.22 | IC90 (SiHa cells [1]; SiHa, read-out: IC90 ART): 34.5 µM | pIC50 (HeLa cells [2]; HeLa, 72 h, read-out: IC50 ART): 5.43 | IC90 (HeLa cells [2]; HeLa, 72 h, read-out: IC90 ART): 14.3 µM | pIC50 (HeLa cells [2]; HeLa, read-out: IC50 ART): 5.34 | IC90 (HeLa cells [2]; HeLa, read-out: IC90 ART): 15.5 µM | pIC50 (SiHa cells [3]): 5.03 to 5.17 | pIC50 (Caski cells): 5.50 to 5.76 | pIC50 (HeLa cells [4]; Homo sapiens, drug alone): ~5.30 | pIC50 (HeLa cells [4]; Homo sapiens, read-out: IC50 Confidence Interval, HeLa, 95% confidence interval): 5.22 to 5.36 | pIC50 (HeLa cells [4]; drug alone): 5.29 | killing of HPV-positive cells [7]: selectively kill | Effect (fraction of HeLa cells still surviving) (HeLa cells [5]; artesunate 1.25 uM alone): 0.7457 | Effect (fraction of HeLa cells still surviving) (HeLa cells [5]; artesunate 2.5 uM alone): 0.6418 | Effect (fraction of HeLa cells still surviving) (HeLa cells [5]; artesunate 5.0 uM alone): 0.5808 | Effect (fraction of HeLa cells still surviving) (HeLa cells [5]; artesunate 10.0 uM alone): 0.4287 | Effect (fraction of HeLa cells still surviving) (HeLa cells [5]; artesunate 20.0 uM alone): 0.3015 | cure of HPV precancers (HPV precancers): 70%
